Laboratory results published in patent US20240261417A1, “SOS1 DEGRADING AGENT AND PREPARATION METHOD THEREFOR AND APPLICATION THEREOF” (SHANGHAI LEADINGTAC PHARMACEUTICAL CO. LTD., priority 2021, published 2024).

Tests used:
KRAS-G12C/SOS1 = molecular target: T1, KRAS-G12C/SOS1 (Homo sapiens, UniProt Q07889); assay: KRAS-G12C/SOS1 binding assay (HTRF); conditions: inhibition of KRAS-G12C/SOS1 binding
T1 construct: purchased Cisbio 63ADKOOOCB16PEG
T1 sequence (Q07889 1-1333): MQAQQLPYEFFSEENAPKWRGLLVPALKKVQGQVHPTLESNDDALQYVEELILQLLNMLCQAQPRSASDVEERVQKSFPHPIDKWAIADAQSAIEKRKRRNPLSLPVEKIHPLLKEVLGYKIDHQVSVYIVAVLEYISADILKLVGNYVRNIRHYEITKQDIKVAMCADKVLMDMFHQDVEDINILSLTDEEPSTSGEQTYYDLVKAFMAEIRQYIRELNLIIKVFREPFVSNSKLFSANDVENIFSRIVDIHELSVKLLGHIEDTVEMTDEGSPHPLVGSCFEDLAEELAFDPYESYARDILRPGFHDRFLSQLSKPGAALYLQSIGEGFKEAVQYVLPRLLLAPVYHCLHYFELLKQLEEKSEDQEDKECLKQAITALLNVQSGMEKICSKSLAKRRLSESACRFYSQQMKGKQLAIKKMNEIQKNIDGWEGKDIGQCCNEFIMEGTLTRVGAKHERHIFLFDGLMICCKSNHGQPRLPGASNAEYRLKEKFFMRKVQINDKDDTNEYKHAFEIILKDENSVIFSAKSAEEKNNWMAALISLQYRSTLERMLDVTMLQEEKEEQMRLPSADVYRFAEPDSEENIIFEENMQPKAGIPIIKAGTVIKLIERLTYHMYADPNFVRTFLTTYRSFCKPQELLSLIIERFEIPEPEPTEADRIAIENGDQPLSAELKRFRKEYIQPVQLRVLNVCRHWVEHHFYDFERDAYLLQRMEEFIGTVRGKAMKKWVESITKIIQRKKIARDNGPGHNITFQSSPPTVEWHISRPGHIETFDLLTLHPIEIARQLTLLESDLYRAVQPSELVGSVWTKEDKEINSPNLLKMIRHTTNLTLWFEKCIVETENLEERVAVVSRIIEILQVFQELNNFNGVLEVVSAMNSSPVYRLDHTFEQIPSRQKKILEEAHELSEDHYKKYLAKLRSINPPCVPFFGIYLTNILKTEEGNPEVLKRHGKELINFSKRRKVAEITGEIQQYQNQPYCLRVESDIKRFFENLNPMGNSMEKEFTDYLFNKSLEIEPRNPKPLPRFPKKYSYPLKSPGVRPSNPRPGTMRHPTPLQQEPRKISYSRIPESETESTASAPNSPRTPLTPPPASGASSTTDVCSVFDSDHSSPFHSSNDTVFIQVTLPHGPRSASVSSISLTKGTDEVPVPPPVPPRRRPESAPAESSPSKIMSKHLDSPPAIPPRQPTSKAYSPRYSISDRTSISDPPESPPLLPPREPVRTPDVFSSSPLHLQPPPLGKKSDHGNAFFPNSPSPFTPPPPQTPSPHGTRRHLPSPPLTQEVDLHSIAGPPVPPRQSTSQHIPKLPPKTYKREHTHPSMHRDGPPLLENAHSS
Description: The following method was used to determine the extent of inhibition of KRAS-G12C/SOS1 binding by the preferred compounds of the present invention under in vitro conditions. In this method, the competitive inhibition of KRAS-G12C/SOS1 binding by the preferred compounds was assayed by the homogeneous time-resolved fluorescence (HTRF) technology using the KRAS-G12C/SOS1 binding assay kit (Cisbio, 63ADKOOOCB16PEG).
The experimental procedures were as follows (refer to the kit instructions for details): the compounds of the present invention were each firstly dissolved in DMSO at a concentration of 20 mM, and then diluted in an equal gradient with a buffer in the kit, so that the final concentrations of the test compounds in the reaction system were in a range of 10000 nM-0.04 nM, and the final concentration of DMSO was 0.5%. 2 μL of the compounds were each incubated with 4 μL of 1×Tag1-SOS1, 4 μL of 1×Tag2-KRAS-G12C (containing 10 μM guanosine triphosphate, GTP) at 25° C. for 15 min. Then 5 μL of 1× Anti-Tag1-Tb3+ and 5 μL of 1× Anti-Tag2-XL665 were added to the reaction system, and the mixture was incubated on ice for 3 h. After the incubation, the fluorescence intensity of each well was measured at the excitation wavelength of 337 nm, the fluorescence intensity of each well was read at the emission wavelengths of 620 nm and 665 nm on a microplate reader EnVision (PerkinElmer, 2105) in an HTRF mode, and the Ratio value was calculated by the formula Ratio=(665 nm/620 nm)×[…]. The inhibition rates of the compounds at each concentration were calculated by comparing the fluorescence intensity ratio with that of the control group, and then nonlinear curve fitting was performed by GraphPad Prism 8 in the logarithmic concentration-inhibition rate to obtain the IC50 values of the compounds, as shown in Table 1.

SOS1 protein = molecular target: T2, SOS1 protein (Homo sapiens, UniProt Q07889); assay: SOS1 degradation assay (Western blot), NCI-H358 cells; type: cell-based; parameters: The degradation of SOS1 by the compounds was investigated on KRAS G12C mutant human non-small cell lung cancer cells NCI-H358; host or cells: NCI-H358 (human cancer cell lines); conditions: SOS1 degradation, NCI-H358 cells, 24 h, Western blot; for DC50: read-out: NCI-H358 (G12C) DC50; for Dmax: read-out: NCI-H358 (G12C) Dmax
T2 sequence (Q07889 1-1333): T1 sequence (Q07889 1-1333)
Method in brief: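 Cells at 5×10^5 per well were treated for 24 h at 37 °C with compound at 0.03–3000 nM final. SOS1 in lysates was measured by Western blot with chemiluminescent densitometry and normalised to the control group. DC50 and Dmax came from nonlinear fits against log concentration.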

| SMILES | IC50 (KRAS-G12C/SOS1) | DC50 (SOS1 protein) | Dmax (SOS1 protein) |
| --- | --- | --- | --- |
| CNCc1ccccc1-c1csc([C@@H](C)Nc2nc(C)nc3cc(OC)c([C@H]4CC[C@H](C(=O)N(C)CCCC5CCN(C(=O)c6ccc(Cl)c(N7CCC(=O)NC7=O)c6)CC5)CC4)cc23)c1 [Example 47, (1R,4R)—N-(3-(1-(4-chloro-3-(2,4-dioxotetrahydropyrimidin-1(2H)-yl)benzoyl)piperidin-4-yl)propyl)-4-(7-methoxy-2-methyl-4-(((R)-1-(4-(2-((methylamino)methyl)phenyl)thien-2-yl)ethyl)amino)quinazolin-6-yl)-N-methylcyclohexane-1-carboxamide] | ≤ 15 nM | 1000 to 10000 nM | < 30% |
| COc1cc2nc(C)nc(N[C@H](C)c3cc(-c4c(Cl)cccc4CN(C)C)cs3)c2cc1[C@H]1CC[C@H](C(=O)N2CCC(CCCOC3CCN(C(=O)c4ccc(Cl)c(N5CCC(=O)NC5=O)c4)CC3)CC2)CC1 [Example 54, 1-(2-chloro-5-(4-(3-(1-((1R,4R)-4-(4-(((R)-1-(4-(2-chloro-6-((dimethylamino)methyl)phenyl)thien-2-yl)ethyl)amino)-7-methoxy-2-methylquinazolin-6-yl)cyclohexane-1-carbonyl)piperidin-4-yl)propoxy)piperidine-1-carbonyl)phenyl)dihydropyrimidine-2,4(1H,3H)-dione] | ≤ 15 nM | < 50 nM | 80 to 100% |
| COc1cc2nc(C)nc(N[C@H](C)c3cc(-c4c(Cl)cccc4CN(C)C)cs3)c2cc1[C@H]1CC[C@H](C(=O)N2CCC(CCCC3CCN(C(=O)c4ccc(Cl)c(N5CCC(=O)NC5=O)c4)CC3)CC2)CC1 [Example 79, 1-(2-chloro-5-(4-(3-(1-((1R,4R)-4-(4-(((R)-1-(4-(2-chloro-6-((dimethylamino)methyl)phenyl)thien-2-yl)ethyl)amino)-7-methoxy-2-methylquinazolin-6-yl)cyclohexane-1-carbonyl)piperidin-4-yl)propyl)piperidine-1-carbonyl)phenyl)dihydropyrimidine-2,4(1H,3H)-dione] | ≤ 15 nM | 50 to 100 nM | 50 to 80% |
| CNCc1ccccc1-c1csc([C@@H](C)Nc2nc(C)nc3cc(OC)c([C@H]4CC[C@H](C(=O)N5CCN(CCC6CCC7(CC6)CCN(C(=O)c6ccc(Cl)c(N8CCC(=O)NC8=O)c6)CC7)CC5)CC4)cc23)c1 [Example 50] | ≤ 15 nM | < 50 nM | 80 to 100% |
| COc1cc2nc(C)nc(N[C@H](C)c3cc(-c4c(Cl)cccc4CN(C)C)cs3)c2cc1[C@H]1CC[C@H](C(=O)N2CCC(COCC3CCN(C(=O)c4ccc(Cl)c(N5CCC(=O)NC5=O)c4)CC3)CC2)CC1 [Example 65, 1-(2-chloro-5-(4-(((1-((1R,4R)-4-(4-(((R)-1-(4-(2-chloro-6-((dimethylamino)methyl)phenyl)thien-2-yl)ethyl)amino)-7-methoxy-2-methylquinazolin-6-yl)cyclohexane-1-carbonyl)piperidin-4-yl)methoxy)methyl)piperidine-1-carbonyl)phenyl)dihydropyrimidine-2,4(1H,3H)-dione] | ≤ 15 nM | 1000 to 10000 nM | < 30% |
| COc1cc2nc(C)nc(N[C@H](C)c3cc(N)cc(C(F)(F)F)c3)c2cc1C1=CCC(C(=O)N2CCN(CC3CCC4(CC3)CCN(C(=O)c3ccc(Cl)c(N5CCC(=O)NC5=O)c3)CC4)CC2)CC1 (stereo partly drawn) [Example 51, 1-(5-(9-((4-(4-(4-(((R)-1-(3-amino-5-(trifluoromethyl)phenyl)ethyl)amino)-7-methoxy-2-methylquinazolin-6-yl)cyclohex-3-ene-1-carbonyl)piperazin-1-yl)methyl)-3-azaspiro[5.5]undecane-3-carbonyl)-2-chlorophenyl)dihydropyrimidine-2,4(1H,3H)-dione] | ≤ 15 nM | < 50 nM | 80 to 100% |
